In article PMC6099110, “Valepotriates From the Roots and Rhizomes of Valeriana jatamansi Jones as Novel N-Type Calcium Channel Antagonists” (Frontiers in Pharmacology, 2018) one finds EC50 data, which are given here for two compounds.

This experiment concerns T1, Cav2.2 N-type voltage-gated calcium channel.
T1 construct: gene CACNA1B
The experiment can be described thus: two-electrode voltage clamp of Cav2.[…] expressed in Xenopus oocytes, dose-response. The class given is cell-based.

Regarding `CC(=O)OCC1=CO[C@@H](OC(=O)CC(C)C)[C@H]2C1=C[C@H](OC(=O)CC(C)C)[C@]2(O)COC(=O)C(OC(=O)CC(C)C)C(C)C` (stereo partly drawn) [compound 1, (1S, 7S, 8R, 9S)-11-acetoxy-10-[a-(isovaleroxy)isovaleroxy]-1,7-diisovaleroxyvaltrate hydrin], the half-maximal effective concentration (EC50) came to 3.3 µM.

On to `CC(=O)OCC1=CO[C@@H](OC(=O)CC(C)(C)OC(C)=O)[C@H]2C1=C[C@H](OC(=O)CC(C)C)[C@]2(O)COC(=O)CC(C)C` [compound 3, valtrate hydrin B8], for which the 50% effective concentration (EC50) came out at 4.8 µM.
